# System: C57BL/6J mice
# Assay: Behavioural circadian responses (phase shift, period, alpha, locomotor activity) after single oral administration, release into constant darkness
# Type: in vivo, mouse
# Description: In all studies described below, male young-adult C57BL/6J mice (4 weeks old at the beginning of experiments) were used. Animals were exposed to a light-dark cycle (LD) 12:12 (lights on from 8 h to 20 h geographical time; light intensity at 200 lux; during dark period dim red light of 5 lux) in individual cages with food and water ad libitum and temperature (22±1° C.) and humidity (55%±5%) controlled. LD cycle was represented as zeitgeber times (ZT) where ZT0 represents the lights on and ZT12 lights off. When animals were exposed to constant darkness conditions (DD), circadian times (CT) were used as time point references, where CT12 corresponds to activity onset.
# It was evaluated whether there is a phase window of sensitivity to the V1a receptor antagonist trans-8-chloro-5-methyl-1-(4-pyridin-2-yloxycyclohexyl)-4,6-dihydro-[1,2,4]triazolo[4,3-a][1,4]benzodiazepine (example 1). A group of animals was treated at 2 temporal points (one during the day and one at night). Animals were exposed to LD cycle conditions (at least for 10 days) to obtain a baseline of the rhythm of locomotor activity. 4 groups were selected: (group 1) Sham manipulations, animals into which the cannula was introduced in the oral cavity without any solution delivery; (group 2) vehicle, and […] administration of the V1a receptor antagonist trans-8-chloro-5-methyl-1-(4-pyridin-2-yloxycyclohexyl)-4,6-dihydro-[1,2,4]triazolo[4,3-a][1,4]benzodiazepine (doses of 10 mg/kg and 30 mg/kg). Administrations were performed (orally) at ZT/CT12 (lights off/activity onset; sham, n=5; vehicle n=5; 10 mg/kg n=5; and 30 mg/kg n=5). After the first manipulation at ZT/CT12, animals were immediately exposed to DD conditions and remained at least for 10 days more for behavioural analysis, and then re-entrained to a 12-12 LD cycle, for a minimum of 10 days, to be re-exposed to the second experimental manipulation at ZT/CT0 (lights on/activity offset; sham, n=3; vehicle n=3; 10 mg/kg n=5; and 30 mg/kg n=5).
# A new group of animals was treated at another 2 temporal points different from the previous experiment; ZT/CT6 (6 h after lights on/mid rest period; sham, n=3; vehicle n=4; and 30 mg/kg n=5) and ZT/CT18 (6 h after lights off/mid activity period; sham, n=3; vehicle n=4; and 30 mg/kg n=5). For this experiment (time points ZT/CT6 and ZT/CT18), trans-8-chloro-5-methyl-1-(4-pyridin-2-yloxycyclohexyl)-4,6-dihydro-[1,2,4]triazolo[4,3-a][1,4]benzodiazepine was administrated only at the 30 mg/kg dose. Thus, 3 groups were selected: (Group 1) Sham manipulations, (Group 2) vehicle administrations and (Group 3) trans-8-chloro-5-methyl-1-(4-pyridin-2-yloxycyclohexyl)-4,6-dihydro-[1,2,4]triazolo[4,3-a][1,4]benzodiazepine (30 mg/kg). After manipulations, animals were immediately exposed to DD conditions and remained at least for 10 days more for behavioural analysis, and then re-entrained to a 12-12 LD cycle for a minimum of 10 days.
# The locomotor activity rhythms were measured using infra-red detectors on the top of the cages and/or running wheels.
# Phase shifts: Phase shifts were measured by fitting two regression lines to the onsets of locomotor activity for 10 days before and 10 days after the manipulation (ClockLab; Actimetrics, Evanston, Ill., USA). A computer algorithm was used to identify the onset of the main period of daily locomotor activity (ClockLab). The data collected on the day following the manipulation (sham, vehicle or drug administration) was excluded from the line fits to ensure that the circadian phase was in steady state. Phase shift was defined as the difference (in hours) between the pre-stimulus line and the post-stimulus line. The magnitude of the phase shifts was fitted by linear regression to the onsets, considering 10 cycles before (LD) and 10 cycles after compound administration when animals were released in constant darkness (DD; Aschoff Type II procedure to evaluate phase shifts; Mrosovsky, 1996b). […]
smiles,measurement,setting,value
"CN1Cc2cc(Cl)ccc2-n2c(nnc2[C@H]2CC[C@H](Oc3ccccn3)CC2)C1 [Example 1, trans-8-chloro-5-methyl-1-(4-pyridin-2-yloxycyclohexyl)-4,6-dihydro-[1,2,4]triazolo[4,3-a][1,4]benzodiazepine]",locomotor activity change after administration,"10 mg/kg or 30 mg/kg oral, ZT/CT12 and ZT/CT0",No significant locomotor activity change
same,endogenous period of locomotor activity,"10 mg/kg or 30 mg/kg oral, ZT/CT12 and ZT/CT0, constant darkness",no changes
same,endogenous period of locomotion,"30 mg/kg oral, ZT/CT18 and ZT/CT6",not significantly different between groups
same,"alpha (duration of active period), difference between groups","30 mg/kg oral, ZT/CT18 or ZT/CT6",no differences between groups were observed
same,behavioural phase shifts (circadian phase),"single administration 30 mg/kg oral, at ZT/CT18 and ZT/CT6",no significant effect on the circadian phase
same,behavioural phase-shifts (circadian phase),"single oral administration, 10 mg/kg or 30 mg/kg, at ZT/CT12 and ZT/CT0",no effect on the circadian phase
same,alpha increase (pre vs. post),"treated at ZT/CT0, 10 and 30 mg/kg oral, effect vs groups not statistically significant",~2 h
same,"alpha (duration of active period), difference between groups","treated at ZT/CT12, 10 and 30 mg/kg oral",no differences between groups were observed
